Reference: article PMC8002023, “3D Pharmacophore-Based Discovery of Novel KV10.1 Inhibitors with Antiproliferative Activity” (Cancers, 2021)
Entries after “also recorded” stand apart in the source; their conditions may differ. Like-named read-outs stand apart in the source and are kept apart here.

Experiments:
Format in all cases: cell-based
KV10.1 [1] = target: T1, KV10.1 (Homo sapiens, UniProt O95259); experiment: Whole-cell patch clamp on HEK-293 cells stably expressing KV10.1; details: HEK293; 10 μM; mean ± standard error (or range)
T1 construct: expressed in transfected cells
T1 sequence (O95259 1-962 isoform O95259-2): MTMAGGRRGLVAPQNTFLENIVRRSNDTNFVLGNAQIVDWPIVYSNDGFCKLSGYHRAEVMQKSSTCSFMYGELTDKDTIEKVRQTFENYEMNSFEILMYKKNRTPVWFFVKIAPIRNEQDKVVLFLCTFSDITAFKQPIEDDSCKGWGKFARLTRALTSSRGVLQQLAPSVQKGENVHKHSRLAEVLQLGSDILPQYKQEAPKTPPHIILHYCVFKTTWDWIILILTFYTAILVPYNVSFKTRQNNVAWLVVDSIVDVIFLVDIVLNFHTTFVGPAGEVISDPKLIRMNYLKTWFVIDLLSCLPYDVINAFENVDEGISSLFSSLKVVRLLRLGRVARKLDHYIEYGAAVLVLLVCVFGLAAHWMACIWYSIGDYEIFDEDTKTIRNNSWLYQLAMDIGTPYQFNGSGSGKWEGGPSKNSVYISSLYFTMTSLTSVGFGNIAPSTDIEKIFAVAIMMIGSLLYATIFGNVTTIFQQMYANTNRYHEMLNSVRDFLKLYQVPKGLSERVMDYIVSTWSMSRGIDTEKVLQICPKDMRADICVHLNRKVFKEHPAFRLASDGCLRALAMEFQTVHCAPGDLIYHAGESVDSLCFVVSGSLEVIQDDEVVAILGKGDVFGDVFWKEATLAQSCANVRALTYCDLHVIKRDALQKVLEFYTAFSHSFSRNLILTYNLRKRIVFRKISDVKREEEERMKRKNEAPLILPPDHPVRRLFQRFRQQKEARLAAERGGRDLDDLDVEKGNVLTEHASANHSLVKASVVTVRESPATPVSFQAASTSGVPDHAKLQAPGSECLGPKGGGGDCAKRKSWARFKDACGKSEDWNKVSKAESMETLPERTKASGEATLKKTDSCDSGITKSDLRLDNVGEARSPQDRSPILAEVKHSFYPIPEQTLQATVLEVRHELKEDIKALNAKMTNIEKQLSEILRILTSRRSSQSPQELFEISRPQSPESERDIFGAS

MCF-7 cells = experiment: Cell growth in 2D culture (Incucyte confluence, 72 h), MCF-7; details: for IC50: high KV10.1 and low hERG expression
Protocol: Cell lines MCF-7 (DSMZ ACC 115), PANC-1 (DSMZ ACC 783), and hTERT-RPE1 (ATCC CRL 4000) were grown in the media recommended by the cell provider in a humidified atmosphere at 5% CO2 and 37 °C. For cell growth experiments, 10^4 cells/well were seeded in 96-well flat bottom culture plates (Corning) and allowed to grow for 24 h. The compounds were then added in the corresponding growth medium, and the plate was imaged every hour for 72 h (two images per well and eight wells per condition in two independent experiments for compound 8 and five for ZVS-08 and compound 1) in an Incucyte system (Sartorius/Essen biosciences). Culture confluence was determined in the phase contrast images and is expressed as percent confluence per well. The growth was then normalised to the value in the absence of compounds.
KV10.1 inhibitors with a favourable pharmacological profile are promising candidates for cancer therapy. To investigate the activity of the new compounds on cancer cells proliferation, compounds ZVS-08, 1 and 8 were tested on MCF-7, a breast cancer cell line showing high KV10.1 expression and low hERG expression, and on Panc1, a pancreatic cancer cell line with undetectable KV10.1 expression and high level of hERG expression. hTERT-RPE1 cells served as a non-cancer cell line. hTERT-RPE1 cells show transient physiological expression of Kv10.1 that begins during the G2 phase of the cell cycle and extends through mitosis as present in normal cells. Different concentrations of the compounds were added to the culture medium and the growth of the cell was monitored over 72 h (Figure 14).

KV10.1 [2] = target: T1, KV10.1; experiment: Whole-cell patch clamp on HEK-293 cells stably expressing KV10.1
Protocol: Whole-cell patch clamp experiments were performed on stably transfected HEK-293 cells. The cells were grown on fibronectin-coated glass coverslips in DMEM supplemented with 10% FCS and 300 µg/mL Zeocin. Experiments were performed at room temperature under continuous perfusion. The extracellular solution contained (mM) 160 NaCl, 2.5 KCl, 2 CaCl2, 1 MgCl2, 10 Hepes/NaOH, pH 7.4, 8 glucose. For the experiments determining conductance–voltage relationships, tail currents were made visible by substituting 60 mM NaCl by KCl ([…], 100 NaCl). Pipettes were pulled from #1 glass capillaries (WPI) to resistances of 1–3 MΩ when loaded with the intracellular solution (100 KCl, 45 N-methyl-D-glucamine, 10 1,2-bis(o-aminophenoxy)ethane-N,N,N′,N′-tetraacetic acid (BAPTA), 10 Hepes pH 7.35). Data acquisition was performed using a EPC10 Plus amplifier (HEKA Elektronik) and Patch Master software. Drug application was performed using an 8-channel fast solution exchanger (ALA). All compounds were dissolved in DMSO to a final concentration of 10 mM. 0.5% DMSO in extracellular solution served as control. KV10.1 currents were elicited by 500 ms depolarisations to +40 mV under continuous perfusion with the compound-containing or control solution. hERG current amplitudes were measured as the peak tail current during a 4 s repolarization to −40 mV after a depolarising pulse to +20 mV lasting for 2 s.
The nine selected in silico hits were tested by manual patch-clamp on a HEK293 cell line stably expressing KV10.1 [33] at a compound concentration of 50 μM (Table 1). Compound activity was tested by determining the current amplitude elicited by repetitive stimuli to +40 mV from a holding potential of −80 mV. […] The hit compound ZVS-08 represents a new structural class of KV10.1 inhibitors with diarylamine structure and has a unique structure among the acquired virtual screening hits. […] The most notable change from the purpurealidin analogues is the replacement of the hydrogen bond acceptor group of the amide bond with the oxygen atom of the nitro group of ZVS-08.

[3] = HEK-293, 500 ms depolarisation to +40 mV, read-out: IC50 Kv10.1

Compound	inhibition at 10 µM (KV10.1 [1]) [%]	effect on growth of MCF-7 cells (MCF-7 cells; concentrations tested)	IC50 (KV10.1 [2]; [3]) [nM]	IC50 (MCF-7 cells; Homo sapiens, MCF7, 72 h) [µM]	IC50 (MCF-7 cells) [µM]	inhibition at 50 µM (KV10.1 [2]; HEK293, compound concentration 50 μM, stimuli to +40 mV, mean ± standard error, read-out: Effect on Kv10.1 (% Inhibition)) [%]	semi-maximal activation (conductance–voltage relationship) (KV10.1 [2]; in the presence of 5 µM ZVS-08, 4.39 ± 1.9 mV in the absence) [mV]	IC50 (KV10.1 [2]; same IC50 in presence and absence of 500 nM astemizole, end of 500 ms pulse to +40 mV, read-out: IC50 Kv10.1, competition with astemizole) [nM]	IC50 (KV10.1 [2]; same IC50 in presence and absence of 1 µM mibefradil, end of 500 ms pulse to +40 mV, read-out: IC50 Kv10.1, competition with mibefradil) [nM]
O=[N+]([O-])c1cc(C(F)(F)F)ccc1Nc1ccc(OCC(O)CN2CCOCC2)cc1 (stereo not shown) [Compound 8]	81.2 ± 4.97	ineffective; also recorded: inactive	1010	–	–	–	–	–	–
CN(C)CC(O)COc1ccc(Nc2ccc(C(F)(F)F)cc2[N+](=O)[O-])cc1 (stereo not shown) [ZVS-08]	–	–	3700	6.8	~5	80.27 ± 0.63	−29.88 ± 1.8	1690	1470
